Laboratory results taken from ChEMBL document CHEMBL3885861, “Open TG-GATES”.

Organism: Rattus norvegicus
Assay: Open TG-GATES - Regimen: Daily Repeat
Assay type: toxicity, organism-based, Sprague-Dawley
Set-up: regimen Daily Repeat, gender Male, age 6 weeks
Details: in vivo, po, route gavage; for APTT / Bas / Eos / Fbg / Hb / Ht / Lym / MCH / MCHC / MCV / Mono / Neu / PT / Plat / RBC / Ret / WBC: tissue Blood; for KIDNEY_L / KIDNEY_R / KIDNEY_TOTAL: tissue Kidney; for LIVER: tissue Liver; for A/G / ALP / ALT / AST / BUN / CRE / Ca / Cl / DBIL / GLC / IP / K / LDH / Na / PL / RALB / TBIL / TC / TG / TP / gamma-GTP: tissue Plasma
[1] = 0 mg/kg, 72 h, dose level Control, time 3 day
[2] = 0 mg/kg, […], dose level Control, time 7 day
[3] = 0 mg/kg, […], dose level Control, time 14 day
[4] = 0 mg/kg, […], dose level Control, time 28 day
[5] = 3 mg/kg, 72 h, dose level Low, time 3 day
[6] = 3 mg/kg, […], dose level Low, time 7 day
[7] = 3 mg/kg, […], dose level Low, time 14 day
[8] = 3 mg/kg, […], dose level Low, time 28 day

SMILES: C[C@H]1C(=O)O[C@@H]2CCN3CC=C(COC(=O)[C@](C)(O)[C@]1(C)O)[C@H]23 [MONOCROTALINE]
- TERMINAL_BW [1]: 230.9 g
- APTT [1]: 21.2 s
- Bas [1]: 0%
- Eos [1]: 0.6%
- Fbg [1]: 311.8 mg/dL
- Hb [1]: 13.5 g/dL
- Ht [1]: 39.5%
- Lym [1]: 83.8%
- MCH [1]: 21.5 pg
- MCHC [1]: 34.3%
- MCV [1]: 62.6 fL
- Mono [1]: 2%
- Neu [1]: 12.4%
- PT [1]: 15.8 s
- Plat [1]: 119.6 x10_4/uL
- RBC [1]: 631.2 x10_4/ul
- Ret [1]: 6.9%
- WBC [1]: 91.2 x10_2/uL
- KIDNEY_L [1]: 1 g
- KIDNEY_R [1]: 1 g
- KIDNEY_TOTAL [1]: 2.1 g
- LIVER [1]: 11 g
- A/G [1]: 1.2
- ALP [1]: 1771.6 IU/L
- ALT [1]: 40.2 IU/L
- AST [1]: 70 IU/L
- BUN [1]: 18.2 mg/dL
- CRE [1]: 0.2 mg/dL
- Ca [1]: 10.6 mg/dL
- Cl [1]: 105.6 meq/L
- DBIL [1]: 0.004 mg/dL
- GLC [1]: 191.4 mg/dL
- IP [1]: 6.9 mg/dL
- K [1]: 4.6 meq/L
- LDH [1]: 222.4 IU/L
- Na [1]: 142.2 meq/L
- PL [1]: 164 mg/dL
- RALB [1]: 3.1 g/dL
- TBIL [1]: 0.008 mg/dL
- TC [1]: 83.8 mg/dL
- TG [1]: 119 mg/dL
- TP [1]: 5.6 g/dL
- gamma-GTP [1]: 1.2 IU/L
- TERMINAL_BW [2]: 267 g
- TERMINAL_BW [3]: 315.5 g
- TERMINAL_BW [4]: 368.8 g
- APTT [2]: 21 s
- Bas [2]: 0%
- Eos [2]: 0.8%
- Fbg [2]: 309.8 mg/dL
- Hb [2]: 13.3 g/dL
- Ht [2]: 38.4%
- Lym [2]: 80.6%
- MCH [2]: 20.8 pg
- MCHC [2]: 34.7%
- MCV [2]: 60.2 fL
- Mono [2]: 2.6%
- Neu [2]: 15.2%
- PT [2]: 16.6 s
- Plat [2]: 111.7 x10_4/uL
- RBC [2]: 638.2 x10_4/ul
- Ret [2]: 6.1%
- WBC [2]: 108.8 x10_2/uL
- APTT [3]: 20.5 s
- Bas [3]: 0%
- Eos [3]: 1%
- Fbg [3]: 323.2 mg/dL
- Hb [3]: 14.1 g/dL
- Ht [3]: 39.6%
- Lym [3]: 78.4%
- MCH [3]: 20.7 pg
- MCHC [3]: 35.6%
- MCV [3]: 58.1 fL
- Mono [3]: 2.8%
- Neu [3]: 16.8%
- PT [3]: 16.7 s
- Plat [3]: 104.7 x10_4/uL
- RBC [3]: 681.6 x10_4/ul
- Ret [3]: 4.5%
- WBC [3]: 124 x10_2/uL
- APTT [4]: 22.4 s
- Bas [4]: 0%
- Eos [4]: 1.2%
- Fbg [4]: 314.2 mg/dL
- Hb [4]: 14.7 g/dL
- Ht [4]: 40.6%
- Lym [4]: 82.2%
- MCH [4]: 19.7 pg
- MCHC [4]: 36.1%
- MCV [4]: 54.6 fL
- Mono [4]: 2%
- Neu [4]: 13.6%
- PT [4]: 16 s
- Plat [4]: 102 x10_4/uL
- RBC [4]: 744.4 x10_4/ul
- Ret [4]: 2.6%
- WBC [4]: 110.5 x10_2/uL
- KIDNEY_L [2]: 1.1 g
- KIDNEY_R [2]: 1.1 g
- KIDNEY_TOTAL [2]: 2.2 g
- KIDNEY_L [3]: 1.3 g
- KIDNEY_R [3]: 1.3 g
- KIDNEY_TOTAL [3]: 2.5 g
- KIDNEY_L [4]: 1.3 g
- KIDNEY_R [4]: 1.4 g
- KIDNEY_TOTAL [4]: 2.7 g
- LIVER [2]: 12.7 g
- LIVER [3]: 13.3 g
- LIVER [4]: 14.7 g
- A/G [2]: 1.2
- ALP [2]: 1469.6 IU/L
- ALT [2]: 37.8 IU/L
- AST [2]: 65 IU/L
- BUN [2]: 18 mg/dL
- CRE [2]: 0.2 mg/dL
- Ca [2]: 10.7 mg/dL
- Cl [2]: 105.4 meq/L
- DBIL [2]: 0 mg/dL
- GLC [2]: 187 mg/dL
- IP [2]: 7 mg/dL
- K [2]: 4.3 meq/L
- LDH [2]: 182.2 IU/L
- Na [2]: 142.4 meq/L
- PL [2]: 156.2 mg/dL
- RALB [2]: 3.1 g/dL
- TBIL [2]: 0.002 mg/dL
- TC [2]: 79.6 mg/dL
- TG [2]: 111 mg/dL
- TP [2]: 5.6 g/dL
- gamma-GTP [2]: 1 IU/L
- A/G [3]: 1.2
- ALP [3]: 1565.6 IU/L
- ALT [3]: 36 IU/L
- AST [3]: 68.6 IU/L
- BUN [3]: 19.4 mg/dL
- CRE [3]: 0.2 mg/dL
- Ca [3]: 10.8 mg/dL
- Cl [3]: 105.6 meq/L
- DBIL [3]: 0.002 mg/dL
- GLC [3]: 194 mg/dL
- IP [3]: 6.6 mg/dL
- K [3]: 4.3 meq/L
- LDH [3]: 217 IU/L
- Na [3]: 142.4 meq/L
- PL [3]: 144 mg/dL
- RALB [3]: 3.2 g/dL
- TBIL [3]: 0 mg/dL
- TC [3]: 66.6 mg/dL
- TG [3]: 148 mg/dL
- TP [3]: 5.9 g/dL
- gamma-GTP [3]: 1.6 IU/L
- A/G [4]: 1.1
- ALP [4]: 1093.2 IU/L
- ALT [4]: 53 IU/L
- AST [4]: 79.6 IU/L
- BUN [4]: 18.8 mg/dL
- CRE [4]: 0.2 mg/dL
- Ca [4]: 10.6 mg/dL
- Cl [4]: 106.8 meq/L
- DBIL [4]: 0 mg/dL
- GLC [4]: 190.2 mg/dL
- IP [4]: 6.3 mg/dL
- K [4]: 4.1 meq/L
- LDH [4]: 176.4 IU/L
- Na [4]: 141.8 meq/L
- PL [4]: 152.6 mg/dL
- RALB [4]: 3.2 g/dL
- TBIL [4]: 0.01 mg/dL
- TC [4]: 74 mg/dL
- TG [4]: 160.4 mg/dL
- TP [4]: 6 g/dL
- gamma-GTP [4]: 1 IU/L
- TERMINAL_BW [5]: 234.1 g
- APTT [5]: 21.2 s
- Bas [5]: 0%
- Eos [5]: 0.8%
- Fbg [5]: 311.8 mg/dL
- Hb [5]: 13.5 g/dL
- Ht [5]: 39.5%
- Lym [5]: 80.2%
- MCH [5]: 20.8 pg
- MCHC [5]: 34%
- MCV [5]: 61.2 fL
- Mono [5]: 2%
- Neu [5]: 16.2%
- PT [5]: 15.9 s
- Plat [5]: 130.1 x10_4/uL
- RBC [5]: 646.2 x10_4/ul
- Ret [5]: 7.1%
- WBC [5]: 122.6 x10_2/uL
- KIDNEY_L [5]: 1 g
- KIDNEY_R [5]: 1 g
- KIDNEY_TOTAL [5]: 2 g
- LIVER [5]: 10.8 g
- A/G [5]: 1.2
- ALP [5]: 1957.6 IU/L
- ALT [5]: 43.6 IU/L
- AST [5]: 74.6 IU/L
- BUN [5]: 16.4 mg/dL
- CRE [5]: 0.1 mg/dL
- Ca [5]: 10.7 mg/dL
- Cl [5]: 106 meq/L
- DBIL [5]: 0.002 mg/dL
- GLC [5]: 187.2 mg/dL
- IP [5]: 6.9 mg/dL
- K [5]: 4.4 meq/L
- LDH [5]: 267.2 IU/L
- Na [5]: 142.8 meq/L
- PL [5]: 154 mg/dL
- RALB [5]: 3.2 g/dL
- TBIL [5]: 0.014 mg/dL
- TC [5]: 83.8 mg/dL
- TG [5]: 104 mg/dL
- TP [5]: 5.7 g/dL
- gamma-GTP [5]: 1.2 IU/L
- TERMINAL_BW [6]: 266.3 g
- TERMINAL_BW [7]: 294.8 g
- TERMINAL_BW [8]: 359.6 g
- APTT [6]: 22.4 s
- Bas [6]: 0%
- Eos [6]: 0.8%
- Fbg [6]: 328.2 mg/dL
- Hb [6]: 13.9 g/dL
- Ht [6]: 39.9%
- Lym [6]: 80.4%
- MCH [6]: 21.1 pg
- MCHC [6]: 34.8%
- MCV [6]: 60.5 fL
- Mono [6]: 2.4%
- Neu [6]: 15.2%
- PT [6]: 16.2 s
- Plat [6]: 119.7 x10_4/uL
- RBC [6]: 659.4 x10_4/ul
- Ret [6]: 5.7%
- WBC [6]: 105.4 x10_2/uL
- APTT [7]: 20.2 s
- Bas [7]: 0%
- Eos [7]: 0.4%
- Fbg [7]: 413 mg/dL
- Hb [7]: 14.3 g/dL
- Ht [7]: 40.6%
- Lym [7]: 81.6%
- MCH [7]: 20.1 pg
- MCHC [7]: 35%
- MCV [7]: 57.4 fL
- Mono [7]: 3.8%
- Neu [7]: 12.8%
- PT [7]: 16 s
- Plat [7]: 120.5 x10_4/uL
- RBC [7]: 708 x10_4/ul
- Ret [7]: 3.3%
- WBC [7]: 187.2 x10_2/uL
- APTT [8]: 23 s
- Bas [8]: 0%
- Eos [8]: 0.8%
- Fbg [8]: 332.8 mg/dL
- Hb [8]: 14.1 g/dL
- Ht [8]: 40.2%
- Lym [8]: 84.2%
- MCH [8]: 19 pg
- MCHC [8]: 35.1%
- MCV [8]: 54 fL
- Mono [8]: 1.8%
- Neu [8]: 12.4%
- PT [8]: 15.4 s
- Plat [8]: 102.5 x10_4/uL
- RBC [8]: 745.6 x10_4/ul
- Ret [8]: 4.2%
- WBC [8]: 146.6 x10_2/uL
- KIDNEY_L [6]: 1.1 g
- KIDNEY_R [6]: 1.2 g
- KIDNEY_TOTAL [6]: 2.3 g
- KIDNEY_L [7]: 1.2 g
- KIDNEY_R [7]: 1.2 g
- KIDNEY_TOTAL [7]: 2.4 g
- KIDNEY_L [8]: 1.3 g
- KIDNEY_R [8]: 1.3 g
- KIDNEY_TOTAL [8]: 2.6 g
- LIVER [6]: 12.4 g
- LIVER [7]: 13.6 g
- LIVER [8]: 17.2 g
- A/G [6]: 1.1
- ALP [6]: 1693.8 IU/L
- ALT [6]: 43.2 IU/L
- AST [6]: 75 IU/L
- BUN [6]: 17 mg/dL
- CRE [6]: 0.2 mg/dL
- Ca [6]: 10.7 mg/dL
- Cl [6]: 105.6 meq/L
- DBIL [6]: 0 mg/dL
- GLC [6]: 187 mg/dL
- IP [6]: 7 mg/dL
- K [6]: 4.2 meq/L
- LDH [6]: 248 IU/L
- Na [6]: 142.6 meq/L
- PL [6]: 151.6 mg/dL
- RALB [6]: 3.1 g/dL
- TBIL [6]: 0.008 mg/dL
- TC [6]: 80.8 mg/dL
- TG [6]: 121.8 mg/dL
- TP [6]: 5.8 g/dL
- gamma-GTP [6]: 1.2 IU/L
- A/G [7]: 1
